Earlier results in patent US20230309918A1, “TREATING PATHOGENIC INFECTIONS” (priority 2020, published 2023).

How the values were obtained:
[1] = tested on: HSV-1 IE gene expression; details: diminishes the ability of the virus to launch the lytic infectious cycle
[2] = in vivo
[3] = tested on: NF-κB; details: pro-inflammatory signaling pathway involved in Lyme-induced inflammation
[4] = kidneys
[5] = tested on: Borrelia burgdorferi; details: one animal study (Pothineni et al., Sci Rep 2020)

SMILES: COc1cc(/C=C/C(=O)CC(=O)/C=C/c2ccc(O)c(OC)c2)ccc1O [Curcumin]
- effect on HSV-1 IE gene expression [1]: affect HSV-1 IE gene expression
- oral bioavailability [2]: poor
- activation of NF-κB [3]: blocking the activation of NF-κB

SMILES: Nc1nc2c(ncn2COCCO)c(=O)[nH]1 [Acyclovir]
- toxic side effects [4]: toxic side effects in the kidneys

SMILES: CC1(C)S[C@@H]2[C@H](NC(=O)[C@H](NC(=O)N3CCNC3=O)c3ccccc3)C(=O)N2[C@H]1C(=O)O [azlocillin]
- killing of disease-causing bacteria Borrelia burgdorferi [5]: completely kills off

SMILES: O=c1c(O)c(-c2ccc(O)c(O)c2)oc2cc(O)cc(O)c12 [Quercetin]
- solubility in water: poorly soluble
